These compounds were tested against T1, CDK12 protein level in CAL-120 breast cancer cells (Homo sapiens, UniProt Q9NYV4) (assay: CDK12 protein level: Protein Simple (CDK12, CAL-120)). Conditions: CAL-120 cells, 18 h with compound, CDK12/HSP90 peak area ratio vs vehicle, median, read-out: CDK12 protein level in CAL-120 breast ca cells, DC50-[mol/l] (median).
T1 construct: endogenous in cells; host or cells: CAL-120 human breast cancer cells (DSMZ ACC 459)
Type: cell-based
Procedure, shortened: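 Cells grown 24 h, then treated with compounds for 18 h at 37° C against DMSO controls. Lysates (0.4 microgramms protein) run on Protein Simple 66-440 kDa size assay with CDK12 and HSP90 loading-control antibodies. CDK12/HSP90 peak-area ratios versus vehicle gave DC50 (50% reduction) by 4-parameter fit.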

T1 sequence (Q9NYV4 whole entry): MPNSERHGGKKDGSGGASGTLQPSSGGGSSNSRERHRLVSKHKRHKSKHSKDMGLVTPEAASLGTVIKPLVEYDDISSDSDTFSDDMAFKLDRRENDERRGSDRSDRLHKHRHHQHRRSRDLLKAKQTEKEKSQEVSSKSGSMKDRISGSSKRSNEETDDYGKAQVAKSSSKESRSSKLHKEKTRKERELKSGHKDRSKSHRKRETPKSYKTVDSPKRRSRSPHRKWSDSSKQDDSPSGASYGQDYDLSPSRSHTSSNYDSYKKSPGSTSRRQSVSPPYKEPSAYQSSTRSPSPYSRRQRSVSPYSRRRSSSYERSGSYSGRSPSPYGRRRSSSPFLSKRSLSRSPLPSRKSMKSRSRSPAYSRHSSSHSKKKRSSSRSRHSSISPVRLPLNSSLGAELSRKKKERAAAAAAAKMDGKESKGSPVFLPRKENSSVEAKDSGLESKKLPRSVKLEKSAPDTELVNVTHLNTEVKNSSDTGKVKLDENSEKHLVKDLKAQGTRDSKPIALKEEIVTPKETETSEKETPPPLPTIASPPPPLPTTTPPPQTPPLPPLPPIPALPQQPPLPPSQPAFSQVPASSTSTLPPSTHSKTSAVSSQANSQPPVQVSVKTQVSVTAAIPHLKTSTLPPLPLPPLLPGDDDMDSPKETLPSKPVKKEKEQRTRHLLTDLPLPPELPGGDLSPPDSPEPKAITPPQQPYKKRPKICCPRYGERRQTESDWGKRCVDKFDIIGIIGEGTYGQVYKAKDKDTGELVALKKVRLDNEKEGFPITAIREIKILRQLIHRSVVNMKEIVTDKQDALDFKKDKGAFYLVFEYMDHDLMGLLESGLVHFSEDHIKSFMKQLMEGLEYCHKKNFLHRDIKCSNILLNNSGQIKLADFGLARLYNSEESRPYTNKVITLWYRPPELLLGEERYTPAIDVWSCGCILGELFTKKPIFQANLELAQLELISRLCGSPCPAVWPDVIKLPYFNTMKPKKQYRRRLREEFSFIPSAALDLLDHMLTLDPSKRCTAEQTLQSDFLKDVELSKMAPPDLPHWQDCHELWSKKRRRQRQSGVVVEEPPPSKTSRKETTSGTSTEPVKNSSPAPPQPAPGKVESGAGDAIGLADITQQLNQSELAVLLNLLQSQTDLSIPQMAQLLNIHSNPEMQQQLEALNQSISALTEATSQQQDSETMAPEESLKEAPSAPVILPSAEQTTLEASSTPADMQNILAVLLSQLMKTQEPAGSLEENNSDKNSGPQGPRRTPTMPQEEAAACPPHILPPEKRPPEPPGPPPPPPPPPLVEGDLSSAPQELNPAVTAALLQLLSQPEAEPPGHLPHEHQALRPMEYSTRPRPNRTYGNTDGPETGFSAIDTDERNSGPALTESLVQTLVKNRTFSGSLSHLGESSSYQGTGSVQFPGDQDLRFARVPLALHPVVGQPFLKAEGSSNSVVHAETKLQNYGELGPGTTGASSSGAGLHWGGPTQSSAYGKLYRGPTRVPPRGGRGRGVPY
T1 sequence (O75909 whole entry partner): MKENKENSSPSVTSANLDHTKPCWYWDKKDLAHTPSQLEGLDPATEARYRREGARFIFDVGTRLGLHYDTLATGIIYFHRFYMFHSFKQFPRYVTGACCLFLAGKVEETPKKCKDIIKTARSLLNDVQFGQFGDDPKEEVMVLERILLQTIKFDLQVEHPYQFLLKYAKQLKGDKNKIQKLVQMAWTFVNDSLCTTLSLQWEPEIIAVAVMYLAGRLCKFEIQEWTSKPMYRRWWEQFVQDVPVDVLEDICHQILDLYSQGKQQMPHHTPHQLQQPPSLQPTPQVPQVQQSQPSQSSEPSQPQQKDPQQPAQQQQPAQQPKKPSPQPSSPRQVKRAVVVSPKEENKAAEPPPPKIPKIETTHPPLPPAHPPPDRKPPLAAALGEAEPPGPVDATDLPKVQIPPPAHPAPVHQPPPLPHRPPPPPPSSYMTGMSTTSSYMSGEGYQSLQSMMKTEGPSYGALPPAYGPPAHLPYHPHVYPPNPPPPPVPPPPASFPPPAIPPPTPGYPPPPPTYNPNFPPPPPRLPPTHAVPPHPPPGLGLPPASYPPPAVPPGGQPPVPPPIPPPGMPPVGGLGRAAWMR

Row | DC50 [nM] | Structure (SMILES)
1 | 57.4 | CC(C)c1cnn2c(NCc3nc4ccccc4[nH]3)nc(N3CCOCC3)nc12 [Example 1, N-[(1H-benzimidazol-2-yl)methyl]-2-(morpholin-4-yl)-8-(propan-2-yl)pyrazolo[1,5-a][1,3,5]triazin-4-amine]
2 | 128 | COC1CCN(c2nc(NCc3nc4ccccc4[nH]3)n3ncc(Br)c3n2)CC1 [Example 62, N-[(1H-benzimidazol-2-yl)methyl]-8-bromo-2-(4-methoxypiperidin-1-yl)pyrazolo[1,5-a][1,3,5]triazin-4-amine]
3 | 41.8 | COC(=O)C1CCN(c2nc(NCc3nc4ccccc4[nH]3)n3ncc(Br)c3n2)CC1 [Example 63, methyl 1-(4-{[(1H-benzimidazol-2-yl)methyl]amino}-8-bromopyrazolo[1,5-a][1,3,5]triazin-2-yl)piperidine-4-carboxylate]
4 | 87.1 | Brc1cnn2c(NCc3nnc(-c4ccccc4)[nH]3)nc(N3CCCC3)nc12 [Example 64, 8-bromo-N-[(5-phenyl-4H-1,2,4-triazol-3-yl)methyl]-2-(pyrrolidin-1-yl)pyrazolo[1,5-a][1,3,5]triazin-4-amine]
5 | 43.7 | Fc1ccc(-c2cnc(CNc3nc(N4CCOCC4)nc4c(Br)cnn34)[nH]2)cc1 [Example 66, 8-bromo-N-{[5-(4-fluorophenyl)-1H-imidazol-2-yl]methyl}-2-(morpholin-4-yl)pyrazolo[1,5-a][1,3,5]triazin-4-amine]
